Measurements taken from US20220380385A1, “PYRIMIDINE FIVE-MEMBERED NITROGEN HETEROCYCLIC DERIVATIVE, PREPARATION METHOD THEREOF AND PHARMACEUTICAL USE THEREOF” (TUOJIE BIOTECH(SHANGHAI) CO., LTD., priority 2019, published 2022).

Tests used:
[1] = molecular target: T1, full-length SHP2 (aa 1-593) (Homo sapiens, UniProt Q06124); assay: Activity on SHP2 phosphatase (DiFMUP fluorescence)
T1 sequence (Q06124 1-593): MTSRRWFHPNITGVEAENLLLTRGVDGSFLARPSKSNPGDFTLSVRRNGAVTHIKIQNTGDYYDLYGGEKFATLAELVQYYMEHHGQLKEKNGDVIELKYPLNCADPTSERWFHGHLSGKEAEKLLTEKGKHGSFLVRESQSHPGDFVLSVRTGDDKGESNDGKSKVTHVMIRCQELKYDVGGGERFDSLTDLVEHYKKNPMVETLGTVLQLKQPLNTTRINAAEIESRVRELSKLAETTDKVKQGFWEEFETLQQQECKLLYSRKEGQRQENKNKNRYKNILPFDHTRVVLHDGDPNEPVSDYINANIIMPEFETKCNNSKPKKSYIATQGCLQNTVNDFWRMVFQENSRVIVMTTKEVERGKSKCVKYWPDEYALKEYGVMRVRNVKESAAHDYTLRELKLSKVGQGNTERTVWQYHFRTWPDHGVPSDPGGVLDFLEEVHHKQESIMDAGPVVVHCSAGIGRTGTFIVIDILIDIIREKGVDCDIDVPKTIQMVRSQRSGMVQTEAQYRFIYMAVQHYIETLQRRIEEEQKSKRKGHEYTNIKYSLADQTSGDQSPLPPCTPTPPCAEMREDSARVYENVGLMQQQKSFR
Protocol: 0.2 nM recombinantly expressed full-length SHP2 (aa 1-593), 0.5 nM activated polypeptide IRS1 with dual phosphorylation sites (sequence: H2N-LN(pY)IDLDLY(dPEG8)LST(pY)ASINFQK-amide), and a series of concentrations of the test compound (final concentrations of 1 μM, 0.3 μM, 0.1 μM, 0.03 μM, 0.01 μM, 0.003 μM, 0.001 M, 0.0003 μM, 0.0001 μM and 0.00003 μM) were added into the phosphatase reaction solution (60 mM HEPES, PH 7.5 0.005% Brij-35, 75 mM NaCl, 75 mM KCl, 1 mM EDTA, 5 mM DTT), followed by shaking (350 rpm) at room temperature for 30 minutes. Then the reaction substrate DiFMUP was added at a final concentration of 30 μM, and the reaction solution was reacted at room temperature for 30 minutes. Then the phosphatase reaction was stopped by adding 5 μL of the reaction stop solution (60 mM HEPES, pH 7.5, 0.2% SDS). Ex358 nm/Em455 fluorescence value was read on the fluorescence plate reader MD SpectraMax.
The IC50 value of compounds was calculated by using the four-parameter logit method. […] Different concentrations correspond to different inhibition rates of phosphatase activity. A reverse curve was plotted and the IC50 of the inhibitors was calculated from the curve. The IC50 of compounds was calculated by using Primer premier 6.0.

CYP3A4/5 = assay: CYP inhibition in mixed human liver microsomes, CYP3A4/5 (midazolam); type: in vitro ADME; conditions: pH 7.4, mixed human liver microsomes 0.2 mg/mL, read-out: Median inhibitory concentration (IC50) CYP 3A4/5
Protocol: Mixed human liver microsomes from 150 donors (purchased from Corning, catalog number 452117) were used to evaluate the representative substrate metabolic responses of the five main human CYP subtypes (CYP1A2, CYP2C9, CYP2C19, CYP2D6 and CYP3A4/5). The influence of different concentrations of test compounds on the metabolic responses of phenacetin (CYP1A2), diclofenac sodium (CYP2C9), S-mephenytoin (CYP2C19), bufurolol hydrochloride (2D6) and midazolam (CYP3A4/5) was determined by liquid chromatography tandem mass spectrometry (LC/MS/MS).
200 μL of the reaction system (100 mmol/L phosphate buffer, pH 7.4, containing 0.3% DMSO, 0.6% acetonitrile and 0.1% methanol by volume respectively) with 30 µM phenacetin, 10 μM diclofenac sodium, 35 μM S-mephenytoin, 5 μM bufurolol hydrochloride, 3 μM midazolam, 1 mM NADPH, test compound (at a concentration of 0.1, 0.3, 1, 3, 10 and 30 μmol/L respectively) or positive compound or blank control and mixed human liver microsomes (0.2 mg/mL) was incubated at 37° C. for 5 minutes. […]
The peak area was calculated based on the chromatograms. The residual activity ratio (%) was calculated using the following equation: […]
The CYP median inhibitory concentration (IC50) was calculated by Excel XLfit 5.3.1.3.

[2] = In vitro metabolic stability in rat liver microsomes; type: in vitro ADME; conditions: rat liver microsomes (male Wistar Han), NADPH, 37° C.; read-out: Intrinsic clearance rate
Protocol: The concentration of the compound in the reaction system was determined by LC/MS/MS, so as to calculate the intrinsic clearance rate of the test compound and to evaluate the in vitro metabolic stability in rat liver microsomes.
222.5 μL, 1.1236 mg/mL of a mixed solution of rat liver microsomes (male Wistar Han strain, purchased from Corning, catalog number 452511) and 25 μL, 10 mM of NADPH were added into the incubation plate. The mixture was mixed by vortexing for 10 seconds. The plate was incubated in a water bath at 37° C. for 8 minutes. 2.5 μL, 100 μM of the test compound or positive control was added to the incubation plate to start the reaction. The mixture was mixed by vortexing for 12 seconds, and incubated in a water bath at 37° C. The reaction was stopped by transferring 20 μL of the incubation system to a stop plate containing 100 μL of cold stop solution at 0.5, 5, 10, 15, 20 and 30 minutes. The mixture was mixed by vortexing for 2 minutes. The stop plate was centrifuged at 4000 rpm for 20 minutes, then left to stand at 4° C. for 30 minutes, and then centrifuged at 4000 rpm for 20 minutes. 40 μL of the supernatant of each compound was transferred to a 96-well injection plate, and 160 μL of pure water was added to dilute the samples.
The obtained samples were quantified by ion chromatogram, and the residual rate was calculated according to the peak area of the test compounds or positive control. The slope k was determined by linear regression of the natural logarithm of the residual rate to the incubation time by using Microsoft Excel.
The in vitro half-life (in vitro t1/2) was calculated from the slope: in vitro t1/2=−(0.693/k)
The following equation was used to convert in vitro half-life into intrinsic clearance rate (in vitro CLint, μL/min/mg protein):
in vitro CLint=(0.693/t1/2)×(incubation volume (L)/protein amount (mg))

Compound: [2H]C([2H])([2H])Nc1nccc(Sc2c(C)nc(N3CCC4(CC3)Cc3ncccc3[C@H]4N)n3ccnc23)c1Cl [Example 3, (S)-1′-(8-((3-Chloro-2-((methyl-d3)amino)pyridin-4-yl)thio)-7-methylimidazo[1,2-c]pyrimidin-5-yl)-5,7-dihydrospiro[cyclopenta[b]pyridine-6,4′-piperidin]-5-amine]
- IC50 [1]: 4.5 nM
- IC50 at 5 min (CYP3A4/5): > 20 µM
- microsomal CLint at 1 µM [2]: < 3 µL/min/mg
